The source of these data is patent US20100215618A1, “NOVEL COMPOUNDS - 644” (Arrow Therapeutics Limited, priority 2009, published 2010).

In general, Papp refers to a coefficient for how fast a substance crosses the barrier.

Series [1] is described as follows: in vitro. The format is in vitro ADME, Canine. Particulars: dog, MDCK. The procedure:
Cells used: MDCK (Madin-Darby Canine Kidney) cells, ATCC collection # CCL-34, are used to model the intestinal barrier. Cell culture conditions: cells were cultured at 37° C. in a 5% CO2 environment and split twice a week on seeding at 4×10^5 cells/flask (75 cm^2) on day 1 and 2×10^5 cells/flask on day 4. The culture medium consisted of MEM+Earle's-L Glutamine (Gibco #21090-022) supplemented with 10% Australian Fetal Calf Serum (Sigma #F6178), 2 mM L-Glutamine (Gibco #25030-024) and 1× Non Essential Amino Acids (Gibco #11140-035)
On day 1, a 24-well plate (Sarstedt, #83.1836.300) was filled with individual 3 lam pore membrane inserts (Millipore, #PITP 012 50). Each plate allows the testing of a cocktail of 3 control compounds and 11 test compounds in duplicate. The wells (outside the inserts) were filled with 500 μl of culture medium.
A flask of cells was trypsinised and a cell count carried out. Cells were diluted to 1.2×10^5 cells/ml (1×10^5 cells/cm^2) and 500 μl dispensed in each insert on the 24-well plate. The plate was incubated at 37° C. in a 5% CO2 environment for 48 hours.
On day 3, the culture medium was removed from the wells, then the inserts and is replaced with fresh culture medium in the wells, then the inserts (500111 per well and insert) The plate was incubated at 37° C. in a 5% CO2 environment for 24 hours.
On day 4, the controls cocktail and test compounds solutions were made up in HBSS buffer (Hank's Balanced Salt Solution, Gibco #14025-050) at 1011M. The final controls and test compounds concentration in the assay was 10 μM, and DMSO concentration maintained at 0.1% (0.3% for the controls cocktail). The controls cocktail was made up of Atenolol (Sigma # A-7655), Dexamethasone (Sigma #D-1756) and Propranolol (Sigma # P-0884).
A 24-well plate was filled with 500 μl of HBSS buffer per well (assay plate) The culture medium was removed from the wells and inserts. The inserts were washed three times with approximately 500 μl of HBSS buffer. The inserts were transferred to the assay plate. Controls cocktail and test compounds solutions were dispensed inside the inserts (500 μl per insert), in duplicates. The assay plate was incubated at 37° C. in a 5% CO2 environment for 2 hours.
After 2 hours, the inserts were removed from the assay plate and transferred into a new 24-well plate (wash plate) The assay plate containing the receiver solutions was left aside for later sampling. To measure the mass balance, 150 μl were sampled from each insert (donor solutions) and dispensed into 150 μl of HPLC-grade Acetonitrile (Fisher Scientific) containing an internal standard and 0.05% formic acid.
The donor solutions were aspirated and discarded from each insert, and the inserts washed once with approximately 500 μl of HBSS buffer. A 24-well plate was filled with 500 μl of HBSS buffer per well (monolayer integrity plate) A Lucifer Yellow (Sigma #L0144) solution was made up at 1001.1M in HBSS buffer. The empty inserts were transferred into the monolayer integrity plate and filled with 500 μl of the Lucifer Yellow solution to determine the cell monolayers integrity and leftover of the solution was kept in a fridge. The plate was incubated at 37° C. in a 5% CO2 environment for 2 hours.
In the meantime, 150 μl were sampled from the assay plate (receiver solutions) and dispensed into 150 μl of HPLC-grade Acetonitrile containing an internal standard and 0.05% formic acid. A calibration curve was made for each mix of compounds (as appropriate depending on compounds molecular weights) A 10 μM mix of compounds in HBSS buffer was diluted 1:1 in HPLC-grade Acetonitrile containing an internal standard and 0.05% formic acid. A 1:1 mix of HBSS buffer and HPLC-grade Acetonitrile containing an internal standard and 0.05% formic acid was made up and used to make up the calibration curve (2 fold dilutions), with concentrations ranging from 10 μM to 0.078 μM. […]

The test system of series [2] is HCV replicon cells Huh 9B. The format is cell-based. To be noted: Huh 9B replicon cells, 72 h, methylene blue, total cell area reduced by 50%.

In turn, `CC(C)(C)OC(=O)N[C@@H](C(=O)N1CCC[C@H]1c1ncc(-c2ccc(-c3ccc(C(=O)Nc4ccc(CN5CCS(=O)(=O)CC5)cc4)cc3)cc2)[nH]1)c1ccccc1` [Example 2, Tert-butyl N-[(1R)-2-[(2S)-2-[5-[4-[4-[[4-[(1,1-dioxo-1,4-thiazinan-4-yl)methyl]phenyl]carbamoyl]phenyl]phenyl]-1H-imidazol-2-yl]pyrrolidin-1-yl]-2-oxo-1-phenyl-ethyl]carbamate] gave a Papp at 2 h, 10 µM in series [1] of 0.2 ×10⁻⁶ cm/s. Moreover, the “HCV TD50 Replicon” value in series [2] is greater than 25 µM.

For `COC(=O)N[C@H](C(=O)N1CCC[C@H]1c1ncc(-c2ccc(-c3ccc(C(=O)Nc4ccc(CN5CCS(=O)(=O)CC5)cc4)cc3)cc2)[nH]1)C(C)C` [Example 3, Methyl N-[(1S)-1-[(2S)-2-[5-[4-[4-[[4-[(1,1-dioxo-1,4-thiazinan-4-yl)methyl]phenyl]carbamoyl]phenyl]phenyl]-1H-imidazol-2-yl]pyrrolidine-1-carbonyl]-2-methyl-propyl]carbamate], the Papp at 2 h, 10 µM in series [1] was found to be 4.1 ×10⁻⁶ cm/s. For the same compound, in series [2], the “HCV TD50 Replicon” value was greater than 25 µM.

Regarding `COC(=O)N[C@H](C(=O)N1CCC[C@H]1c1ncc(-c2ccc(-c3ccc(C(=O)Nc4ccc(CN5CCS(=O)(=O)CC5)cc4)cc3)cc2)[nH]1)C(C)(C)C` [Example 5, Methyl N-[(1S)-1-[(2S)-2-[5-[4-[4-[[4-[(1,1-dioxo-1,4-thiazinan-4-yl)methyl]phenyl]carbamoyl]phenyl]phenyl]-1H-imidazol-2-yl]pyrrolidine-1-carbonyl]-2,2-dimethyl-propyl]carbamate], in series [1], the Papp at 2 h, 10 µM stood at 2 ×10⁻⁶ cm/s. In addition, the “HCV TD50 Replicon” value in series [2] stood at 3.9 µM.

Consider `COC(=O)N[C@H](C(=O)N1CCC[C@H]1c1ncc(-c2ccc(-c3ccc(C(=O)Nc4ccc(CN5CCS(=O)(=O)CC5)cc4)cc3)cc2)[nH]1)c1ccccc1` [Example 6, Methyl N-[(1S)-2-[(2S)-2-[5-[4-[4-[[4-[(1,1-dioxo-1,4-thiazinan-4-yl)methyl]phenyl]carbamoyl]phenyl]phenyl]-1H-imidazol-2-yl]pyrrolidin-1-yl]-2-oxo-1-phenyl-ethyl]carbamate], for which the Papp at 2 h, 10 µM in series [1] is 0.1 ×10⁻⁶ cm/s. In addition, in series [2], the “HCV TD50 Replicon” value is greater than 25 µM.

Regarding `COC(=O)N[C@@H](C(=O)N1CCC[C@H]1c1ncc(-c2ccc(-c3ccc(C(=O)Nc4ccc(CN5CCS(=O)(=O)CC5)cc4)cc3)cc2)[nH]1)c1ccccc1` [Example 7, Methyl N-[(1R)-2-[(2S)-2-[5-[4-[4-[[4-[(1,1-dioxo-1,4-thiazinan-4-yl)methyl]phenyl]carbamoyl]phenyl]phenyl]-1H-imidazol-2-yl]pyrrolidin-1-yl]-2-oxo-1-phenyl-ethyl]carbamate], in series [1], the Papp at 2 h, 10 µM came out at 0.4 ×10⁻⁶ cm/s. In addition, the “HCV TD50 Replicon” value in series [2] was greater than 25 µM.

`CCN(CC)[C@@H](C(=O)N1CCC[C@H]1c1ncc(-c2ccc(-c3ccc(C(=O)Nc4ccc(CN5CCS(=O)(=O)CC5)cc4)cc3)cc2)[nH]1)c1ccccc1` [Example 8, 4-[4-[2-[(2S)-1-[(2R)-2-(diethylamino)-2-phenyl-acetyl]pyrrolidin-2-yl]-1H-imidazol-5-yl]phenyl]-N-[4-[(1,1-dioxo-1,4-thiazinan-4-yl)methyl]phenyl]benzamide]: the Papp at 2 h, 10 µM in series [1] worked out at 1.2 ×10⁻⁶ cm/s. Also, the “HCV TD50 Replicon” value in series [2] is greater than 25 µM.

`CN(C)[C@@H](C(=O)N1CCC[C@H]1c1ncc(-c2ccc(-c3ccc(C(=O)Nc4ccc(CN5CCS(=O)(=O)CC5)cc4)cc3)cc2)[nH]1)c1ccccc1` [Example 9, 4-[4-[2-[(2S)-1-[(2R)-2-(dimethylamino)-2-phenyl-acetyl]pyrrolidin-2-yl]-1H-imidazol-5-yl]phenyl]-N-[4-[(1,1-dioxo-1,4-thiazinan-4-yl)methyl]phenyl]benzamide]: the Papp at 2 h, 10 µM in series [1] worked out at 0.9 ×10⁻⁶ cm/s. Also, the “HCV TD50 Replicon” value in series [2] was greater than 25 µM.

In the case of `COC(=O)N[C@@H](CC(C)C)C(=O)N1CCC[C@H]1c1ncc(-c2ccc(-c3ccc(C(=O)Nc4ccc(CN5CCS(=O)(=O)CC5)cc4)cc3)cc2)[nH]1` [Example 14, Methyl N-[(1S)-1-[(2S)-2-[5-[4-[4-[[4-[(1,1-dioxo-1,4-thiazinan-4-yl)methyl]phenyl]carbamoyl]phenyl]phenyl]-1H-imidazol-2-yl]pyrrolidine-1-carbonyl]-3-methyl-butyl]carbamate], the Papp at 2 h, 10 µM in series [1] came to 1.2 ×10⁻⁶ cm/s. The “HCV TD50 Replicon” value in series [2] is greater than 25 µM.

As for `CC[C@H](C)[C@H](NC(=O)OC)C(=O)N1CCC[C@H]1c1ncc(-c2ccc(-c3ccc(C(=O)Nc4ccc(CN5CCS(=O)(=O)CC5)cc4)cc3)cc2)[nH]1` [Example 16, Methyl N-[(1S,2S)-1-[(2S)-2-[5-[4-[4-[[4-[(1,1-dioxo-1,4-thiazinan-4-yl)methyl]phenyl]carbamoyl]phenyl]phenyl]-1H-imidazol-2-yl]pyrrolidine-1-carbonyl]-2-methyl-butyl]carbamate], the Papp at 2 h, 10 µM in series [1] was 1 ×10⁻⁶ cm/s. Also, the “HCV TD50 Replicon” value in series [2] is greater than 25 µM.

As to `COC(=O)N[C@H](C(=O)N1CCC[C@@H]1c1ncc(-c2ccc(-c3ccc(C(=O)Nc4ccc(CN5CCS(=O)(=O)CC5)cc4)cc3)cc2)[nH]1)C(C)C` [Example 20, Methyl N-[(1S)-1-[(2R)-2-[5-[4-[4-[[4-[(1,1-dioxo-1,4-thiazinan-4-yl)methyl]phenyl]carbamoyl]phenyl]phenyl]-1H-imidazol-2-yl]pyrrolidine-1-carbonyl]-2-methyl-propyl]carbamate], in series [1], the Papp at 2 h, 10 µM came to 0.4 ×10⁻⁶ cm/s.

The compound `CCCS(=O)(=O)N1CCN(Cc2ccc(NC(=O)c3ccc(-c4ccc(-c5cnc([C@@H]6CCCN6C(=O)[C@@H](NC(=O)OC)C(C)C)[nH]5)cc4)cc3)cc2)CC1` [Example 40, Methyl N-[(1S)-2-methyl-1-[(2S)-2-[5-[4-[4-[[4-[(4-propylsulfonylpiperazin-1-yl)methyl]phenyl]carbamoyl]phenyl]phenyl]-1H-imidazol-2-yl]pyrrolidine-1-carbonyl]propyl]carbamate] showed a Papp at 2 h, 10 µM in series [1] of 0.7 ×10⁻⁶ cm/s. This Papp at 2 h, 10 µM lies about 1.7-fold higher than the previous one.

`COC(=O)N[C@H](C(=O)N1CCOC[C@H]1c1ncc(-c2ccc(-c3ccc(C(=O)Nc4ccc(CN5CCS(=O)(=O)CC5)cc4)cc3)cc2)[nH]1)c1ccccc1` [Example 47, Methyl N-[(1S)-2-[(3R)-3-[5-[4-[4-[[4-[(1,1-dioxo-1,4-thiazinan-4-yl)methyl]phenyl]carbamoyl]phenyl]phenyl]-1H-imidazol-2-yl]morpholin-4-yl]-2-oxo-1-phenyl-ethyl]carbamate] displayed a Papp at 2 h, 10 µM in series [1] of 0.1 ×10⁻⁶ cm/s. Moreover, the “HCV TD50 Replicon” value in series [2] was greater than 25 µM.

Regarding `COC(=O)N[C@H](C(=O)N1CCC[C@H]1c1ncc(-c2ccc(-c3ccc(C(=O)Nc4ccc(CN5CCS(=O)(=O)CC5)cc4)cc3)c(C)c2)[nH]1)C(C)C` [Example 54, Methyl N-[(1S)-1-[(2S)-2-[5-[4-[4-[[4-[(1,1-dioxo-1,4-thiazinan-4-yl)methyl]phenyl]carbamoyl]phenyl]-3-methyl-phenyl]-1H-imidazol-2-yl]pyrrolidine-1-carbonyl]-2-methyl-propyl]carbamate], the Papp at 2 h, 10 µM in series [1] came to 6 ×10⁻⁶ cm/s. Besides, the “HCV TD50 Replicon” value in series [2] was greater than 25 µM.
